We go through one compound from PMC5035018, “Arachidonic Acid Metabolite 19(S)-HETE Induces Vasorelaxation and Platelet Inhibition by Activating Prostacyclin (IP) Receptor” (PLoS ONE, 2016).

One may read the pKi as the negative decadic logarithm of the Ki, by convention in mol/L.

pKi: −log10 of the molar value.

The assay addresses T1, prostacyclin (IP) receptor (Homo sapiens, UniProt P43119).
T1 construct: gene PTGIR; human IP receptor cDNA expressed in COS-1 cells
Put plainly: [3H]-iloprost competition radioligand binding on transfected COS-1 cells (also cAMP EC50 […]). Format: cell-based.

T1 sequence (P43119 1-383): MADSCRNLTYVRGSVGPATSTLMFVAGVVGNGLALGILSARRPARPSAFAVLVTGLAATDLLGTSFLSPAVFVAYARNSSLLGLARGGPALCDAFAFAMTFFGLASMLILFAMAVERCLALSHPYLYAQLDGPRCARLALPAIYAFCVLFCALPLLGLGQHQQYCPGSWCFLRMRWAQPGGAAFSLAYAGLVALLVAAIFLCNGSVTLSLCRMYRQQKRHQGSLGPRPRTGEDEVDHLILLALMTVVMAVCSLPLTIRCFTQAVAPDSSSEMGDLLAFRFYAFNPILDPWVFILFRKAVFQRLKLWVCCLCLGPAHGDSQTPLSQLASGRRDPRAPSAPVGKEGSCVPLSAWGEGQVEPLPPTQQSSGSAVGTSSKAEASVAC

Consider `C[C@H](O)CCC/C=C\C/C=C\C/C=C\C/C=C\CCCC(=O)O` [19(S)-HETE, 19(S)-hydroxy-5Z,8Z,11Z,14Z-eicosatetraenoic acid], for which the pKi was 6.18.
